Results taken from patent publication US20250312289A1, “METHODS AND COMPOSITIONS COMPRISING TOBACCO MILD GREEN MOSAIC VIRUS (TMGMV)” (priority 2022, published 2025).

How the values were obtained:
[1] = test system: TMGMV; assay: Quantitative TEM width analysis of AI-loaded TMGMV prepared via pH and DMSO methods, Example 6; format: physicochemical, Tobacco Mild Green Mosaic Virus; settings: negative-stain TEM, native 15.7 nm; for maximum width of AI-loaded TMGMV: pH and DMSO methods
Procedure: (§1) Loading of AI into TMGMV via the “pH method” was performed. TMGMV at a concentration of 1 mg mL^−1 in 10 mM KP buffer at pH 7.5 was kept for 10 days at 4° C. The following AIs were used: fluopyram and clothianidin, (BASF, Berkeley, CA, USA), rifampicin and ivermectin (BioVision; Milpitas, CA, USA). Cy5 (Lumiprobe; Cockeysville, MD, USA) and doxorubicin (ApexBio; Houston, TX, USA) were also studied as proof of concept (fluorescent molecule and cancer chemotherapy). The AI was added to TMGMV by adding an excess of 10:1 AI:coat protein (CP; each TMGMV rod is assembled from ˜2,100 identical CPs) every day until a ratio of 100:1 was reached. During this process the reaction was kept mixing on a rotary shaker. 1 mL aliquots were obtained each day for further analysis.
(§2) Loading of AI into TMGMV via the “DMSO method” was performed. TMGMV in 10 mM KP buffer (pH 7.2) was diluted to 5 mg mL-1 in 2 mL of buffer and transferred to a 25 mL beaker and magnetically stirred at 300 rpm at room temperature. A solution of DMSO and 10 mM KP was added dropwise to dilute the solution to a 20% (v/v) concentration of DMSO and 2 mg mL-1 of TMGMV. Aliquots of the AIs were added dropwise to the solution to prevent precipitation. The solutions were left to stir at room temperature for 24 hours. The samples were collected and spin filtered as described above before being stored at 4° C.
TMGMV samples were diluted to a concentration of 0.05 mg mL-1 and absorbed onto carbon-coated TEM grids (Electron Microscopy Sciences, Hatfield, PA, USA). The grids were then washed three times with pure water. Then, grids were stained by 2% (w/v) uranyl acetate for 90 seconds. TEM was conducted using a FEI Tecnai F30 transmission electron microscope operated at 300 kV. Image analysis was performed using ImageJ software (https://imagej.nih.gov/ij/download.html). To determine the change in width of the nanoparticles, the width of sections of 100 nm in length was measured for standardization purposes. Five different sections were measured per micrography and 30 of them in total per sample. Subsequently, for the complete particle, the length, the perimeter and the area were measured, to later calculate the average width from the perimeter.
TEM imaging and quantitative TEM imaging analysis of the AI-loaded TMGMV nanoparticles prepared by the pH method and the DMSO method was performed. […] To gain insights into the degree of structural changes, quantitative TEM image analysis was performed comparing native vs. the AI-laden TMGMV. Based on the negative stain, native virions were 15.7 nm in width in average (±1.9 nm), which is an underestimation to native TMGMV of 18 nm. This may be due to the uranyl acetate negative staining yielding a heavy shadow on the borders of the virion, apparently reducing its width. While there was no statistical significance between the controls that underwent both methodologies (FIG. 27), for each compound the increment (in comparison to native TMGMV) was different, as well as between methodologies (FIG. 17A).

[2] = cited from earlier work
[3] = test system: TMGMV; assay: TEM/ImageJ width of TMGMV infused with AI by partial dissociation (breathing), Example 3; format: physicochemical, Tobacco Mild Green Mosaic Virus; settings: pH 7.5, 5 days, 500:1 equivalence ratio; TEM; control 18 nm
Procedure: TMGMV at a concentration of 5 mg mL^−1 in KP buffer at pH 7.5 was kept for 5 days at 4° C. Addition of the target AI to the solution was done every 24 h until reaching a 500:1 equivalence ratio and left mixing on a rotary shaker. Afterwards, the solution was centrifuged at 50,000 rpm in the tabletop ultracentrifuge (Beckman Optima MAX-XP with TLA-55 rotor) for 1 hour on a sucrose cushion (30% w/v). The viral pellet was then resuspended in 10 mM KP pH 7 overnight at 4° C. on a rotary shaker. After total resuspension, the solution was dialyzed for 48 h to remove excess (non-entrapped) AI.
Samples were diluted to the concentration of 0.05 mg mL^−1 and absorbed onto carbon-coated TEM grids (Electron Microscopy Sciences). The grids were then washed three times with pure water. Then, grids were stained by 2% (w/v) uranyl acetate for 2 min for imaging. TEM was conducted using a FEI Tecnai F30 transmission electron microscope operated at 300 kV.
Experiments were conducted to load pesticides into TMGMV by strategically altering the pH. Without being bound by theory, this entraps Als through the formation of “pockets” between coat proteins (CPs). Without being bound by theory, the rationale is that by increasing the pH of the buffer, the virus will start to dissociate and hydrophobic pockets will get created between the virion's coat proteins. AIs are then added to interact with the virus particles and then the pH is decreased to promote particles' self-assembly and entrapment of AI on the hydrophobic pockets (see schematic of FIG. 7). As discussed above, TMGMV at a concentration of 5 mg mL-1 in KP buffer at pH 7.5 was kept for at 4° C. for 5 days, and the target AI was added to the solution every 24 h until reaching a 500:1 equivalence ratio. Afterwards, the solution was centrifuged at 50,000 rpm for 1 hour on a sucrose cushion (30% w/v). The viral pellet was then resuspended in 10 mM KP pH 7 overnight at 4° C., and after total resuspension, the solution was dialyzed for 48 h to remove excess (non-entrapped) AI. Samples were then observed at TEM and analyzed using ImageJ.
To determine the change in width (breathing/infusion) of the nanoparticles, the width of sections of 100 nm in length of nanoparticles (as shown in the micrography of FIG. 8) was measured. This was done to standardize the measurements and determine the change in width. At least 5 different sections were measured per micrography, and at least 30 sections were measured in total per sample.

[4] = test system: TMGMV; assay: Quantification of loaded AI in TMGMV by HPLC; format: physicochemical, Tobacco Mild Green Mosaic Virus; settings: for Detected in sample / Molecules per CP / Molecules per virion: HPLC
Procedure: as §1
After AI loading, the aliquots were spin-filtered using 100K molecular weight cut-off 0.5 mL filters (MilliporeSigma, Burlington, MA, USA). 200 μL of the aliquot and 250 μL of KP solution were added and then centrifuged at 16,160×g for 5 minutes at 4° C., the flow-through was discarded, and then 450 μL of KP was added and centrifuged again, this step was repeated 3 times. After the third centrifugation, the filter was inverted in a new tube and centrifuged at 1000×g for 2 minutes, to recover the supernatant and carry out the subsequent characterization.
as §2
For HPLC, AI was extracted from TMGMV. In brief, the concentration of TMGMV samples was adjusted to 1.2 mg mL-1 in KP. The solution was diluted 4-fold into a 1:1 acetonitrile/:methanol mixture and vortexed for 30 seconds. The solution was centrifuged at 10,000×g for 10 minutes at 4° C. and the organic phase (bottom fraction) was collected and transferred to an HPLC 2 mL glass screw top vial (SureSTART, Thermo Scientific, Waltham, MA, USA).
After a 10-fold dilution in acetonitrile, the extracted samples were injected at 500 μL and run on 5 μm C18 column (20×100 mm) using a Shimadzu LC-40 HPLC system (Columbia, MD, USA). The method was run at 0.5 mL min-1 in a gradient of acetonitrile and 0.02% (v/v) phosphoric acid for 15 minutes per sample. A photodiode array was used to collect absorbance values at 280 nm (fluopyram), 269 nm (clothianidin), 225 nm (ivermectin), and 330 nm (rifampicin). The absorbance values were fitted to a standard curve to identify sample concentration with N=3.

[5] = test system: β-CD-TMGMV; assay: Doxorubicin competition (displacement) assay for loading onto β-CD-TMGMV; format: binding; settings: competitor at 1000 eq, overnight at 4° C.
Procedure: To assess loading of pesticides to β-CD-TMGMV, competition assays were completed between Doxorubicin (ApexBio) and the target molecules. Samples of 100 μL volume were prepared in a 96-well plate (Costar). For sample wells, 0.0825 mg of β-CD-conjugated TMGMV in KP buffer were added to the wells, in addition with doxorubicin at 10 eqβ-CD-TMIGMV (molar equivalents to β-CD-conjugated TMGMV).
Three control conditions were utilized: 1 eq TMGMV, 575 eq β-CD, and 1 eq TMGMV with 575 eq β-CD (non-conjugated). These control wells also received doxorubicin at 10 eq. The plate was incubated overnight at 4° C. on a plate rocker (Fisher). Fluorescence top readings were conducted on the plate (excitation 470 nm, emission 595 nm, 25 flashes) via UV-Vis Plate Reader (Tecan infinite 200Pro). […] Following a repeat overnight incubation at 4° C. on a plate rocker (Fisher), fluorescent reading was repeated as before.
Samples of 100 μL volume were prepared in a 96-well plate (Costar). For sample wells, 0.0825 mg of β-CD-conjugated TMGMV in KP buffer were added to the wells, in addition with doxorubicin at 10 eq (molar equivalents to β-CD-conjugated TMGMV). […] Fluorescence top readings were then conducted on the plate (excitation 470 nm, emission 595 nm, 25 flashes) via UV-Vis Plate Reader (Tecan infinite 200Pro). […] The fluorescence was then read on the plate reader as described before. […]

[6] = test system: TMGMV; assay: Size exclusion chromatography with absorbance (Beer-Lambert) loading determination; format: physicochemical, Tobacco Mild Green Mosaic Virus; settings: SEC absorbance 480 nm / 647 nm, Beer-Lambert law
Procedure: TMGMV samples (500 μL at 0.5 mg/mL) were analyzed using a Superose6 Increase 100 GL column and an AKTA Pure25 chromatography system (GE Healthcare, Chicago, Il, USA) using a flow rate 0.5 mL/min in 10 mM KP (pH 7.4). […]
Size exclusion chromatography (SEC) was performed to further verify structural integrity of the AI-laden TMGMV particles during post-processing and purification.

[7] = DMSO method (20% v/v, 24 hours)

Row | Molecule | width increase compared to negatively-stained native TMGMV [1] | logP [2] | average width of infused TMGMV [3] | increase in width vs native TMGMV control [3] | less loading using DMSO method vs pH method ([4]; 24 hour DMSO vs 10-day pH) | Detected in sample [4, 7] | Molecules per CP [4, 7] | Molecules per virion [4, 7] | Detected in sample ([4]; pH method (pH 7.5, 10 days)) | Molecules per CP ([4]; pH method (pH 7.5, 10 days)) | Molecules per virion ([4]; pH method (pH 7.5, 10 days)) | doxorubicin initially bound to β-CD-TMGMV displaced [5] | loading, molecules per TMGMV [6] | maximum width of AI-loaded TMGMV [1] | increase in loading using DMSO method vs pH method ([4]; 24 hour DMSO vs 10-day pH)
1 | CN/C(=N\[N+](=O)[O-])NCc1cnc(Cl)s1 [Clothianidin, clothianidin] | 65% | 1.3 | 26 nm | 38% | about 10% | 2.06 µg/mL | 0.47 | 995 | 2.29 µg/mL | 0.52 | 1107.55 | 17.60% |  |  | 
2 | COc1cccc2c1C(=O)c1c(O)c3c(c(O)c1C2=O)C[C@@](O)(C(=O)CO)C[C@@H]3O[C@H]1C[C@H](N)[C@H](O)[C@H](C)O1 [Doxorubicin, doxorubicin] |  | 0.02 | 35 nm | 89% |  |  |  |  |  |  |  |  | ~615 |  | 
3 | O=C(NCCc1ncc(C(F)(F)F)cc1Cl)c1ccccc1C(F)(F)F [Fluopyram, fluopyram] | 14% | 3.33 | 22 nm | 21% |  | 0.61 µg/mL | 0.087 | 185.59 | 0.05 µg/mL | 0.007 |  | 18.34% |  | 18 nm | 11.7 fold
4 | CO[C@H]1/C=C/O[C@@]2(C)Oc3c(C)c(O)c4c(O)c(c(/C=N/N5CCN(C)CC5)c(O)c4c3C2=O)NC(=O)/C(C)=C\C=C\[C@H](C)[C@H](O)[C@@H](C)[C@@H](O)[C@@H](C)[C@H](OC(C)=O)[C@@H]1C [Rifampicin, rifampicin] |  | 2.4 |  |  |  |  |  |  |  |  |  |  |  |  | 
5 | cyanine5 [Cyanine 5] |  | 3.84 |  |  |  |  |  |  |  |  |  |  | ~80 |  | 
6 | ivermectin | 46% | 4.4 |  |  |  | 0.44 µg/mL | 0.029 | 61.63 | 0.02 µg/mL | 0.001 | 2.89 |  |  | 23 nm | 21.3 fold
